Source: EP0636368B1, “The use of 2- phenylmethylene -1- 3'-(amino)-2'-(hydroxy)--propoxy-imino -cyclohexane derivatives” (EGIS GYOGYSZERGYAR RT., priority 1993, dated 1995)
Converted amounts (≈) assume the structure as drawn.

Key:
[1] = tested on: lesions of gastric mucosa; test: Test with absolute ethanol (gastric mucosa lesions, erosion index); type: in vivo, Rats; details: for activity in the test with absolute ethanol: result in words; for Relative activity related to the inhibition of the free acid: gastroprotective action (absolute ethanol test) compared to the gastric acid inhibiting activity (Shay test, rats, p.o.)
Method: Rats of both sexes weighing 200 to 250 g, each previously starved for 24 hours, were used in this experiment. […] After one hour following the administration, the animals were killed by an overdose of ether, the stomach was excised and the alterations of gastric mucosa were examined. The lengths of the erosions were measured and summarized (expressed in mm) for each stomach to obtain the erosion index by calculating the average value of the group. The inhibition was calculated in percentage by comparing the value of the group treated with ethanol to that of the control group treated only with the vehicle. Various doses of the compounds to be tested were administered, perorally, in a volume of 5 ml/kg using a pretreatment time of 60 minutes. Eight rats were used for each dose. (A. Robert, Gastroenterology 77 [1979], 761 to 767). In the test with absolute ethanol which is useful for showing the gastroprotective activity, as to the effective dose range, a sharp difference can be made between the cytoprotective effect and the gastric acid inhibition, the latter resulting in the inhibition of the gastric erosion.

[2] = tested on: lesions of gastric mucosa; test: Test with ethanol containing hydrochloric acid (erosion frequency and erosion index); type: in vivo, Rats; details: for Inhibition of the erosion index Relative activity / Inhibition of the erosion frequency Relative activity: ED50 of cetraxate divided by ED50 of the compound tested; for ED50: Rattus norvegicus, po, read-out: Inhibition of the erosion frequency ED50 p.o.; for ED50 / Inhibition of the erosion index ED50 p.o.: rats, peroral, conc. hydrochloric acid/absolute ethanol 1 to 50
Description: The principle of the method consists in that, simultaneously with the administration of absolute ethanol, hydrochloric acid is introduced to the stomach. Thus, the influence on systemic gastric acid inhibition action can be eliminated by the presence of the exogenous acid.
The reagent used in this test was a mixture of concentrated aqueous hydrochloric acid and absolute ethanol in a weight ratio of 1 to 50 in accordance with the dilution ratio used by Yamazaki et al. (Japan J. Pharmacol., 55 [1991], 415 to 424). In other respects, the experiment was performed as described under test 2.1., however, in addition to the erosion index calculated from the lenghts of the erosions in mm, the ratio of occurence of animals showing at least one gastric erosion within a test group, i.e. the erosion frequency, was also evaluated.

[3] = Acute toxicity (LD50, Litchfield and Wilcoxon); details: mouse, in vivo, po; NMRI mice of both sexes, peroral, 7 days observation; "higher than" = highest dose administered without any death
Method: The acute toxicity was determined on NMRI strain mice of both sexes weighing 20 to 25 g each by using 6 animals for each dose. The compounds to be tested were administered perorally in a volume of 20 ml/kg, the highest dose applied was 1 000 mg/kg. After the administration the animals were kept under usual laboratory conditions for 7 days. The LD50 values were calculated according to the method of Litchfield and Wilcoxon (J. Pharmacol. Exp. Ther., 96 [1949], 99).
The data given as "higher than" a certain value mean the highest dose administered without noting any death of animals.

gastric acid secretion = test: Effect on the gastric acid secretion (Shay's method, pylorus ligation); type: in vivo, Wistar rats; details: test according to Shay, result in words
Method: The influence of the compounds on the gastric acid secretion was examined on starved Wistar rats of both sexes weighing 180 to 240 g each by using Shay's method (H. Shay et al., Gastroenterology, 5 [1945], 45). The compounds to be tested were given, perorally, 3 hours before the ligation of the pylorus. Four hours after the operation, the animals were killed by an overdose of ether, the stomach was excised, the stomach content was centrifuged and the free hydrochloric acid content of the gastric juice was determined by titration in the presence of Töpfer's reagent. The percentage of inhibition and then the ED50 values were determined by calculating average values for the groups and comparing those to the average values for the control group.

Helicobacter pylori = test: Antibacterial effect on Helicobacter pylori (MIC on blood agar); type: cell-based; details: for MIC: Helicobacter pylori, 72 h, 37°C
Method: Helicobacter pylori strains used in these experiments were obtained from the biopsial samples of the stomachs of patients suffering from ulcerative diseases of the gastrointestinal system. From the pure culture of isolates a thick suspension was prepared with cysteine-inositol solution suitable for lyophilisation, and the suspension obtained was maintained in cold-resistant plastic ampoules in a deep-freezing chamber at a temperature of about -196°C. For the determination of the inhibitory effect of the compounds tested on Helicobacter pylori, blood agar containing 10 mg/litre of a stereoisomer of 23-[aminocarbonyl]-12-[{2-0-(3-amino-2,3,6-trideoxy-3-C-methyl-α-L-lyxo-hexopyranosyl)-β-D-glucopyranosyl}-oxy]-8,16-di-[chloro]-2,3,4,5,19,20,21,22,23,24,25,26,27,28,29,30-hexa-[decahydro]-5,19,34,36,38-penta-[hydroxy]-28-[{4-(methyl)-2-(methylamino)-1-(oxo)-pentyl}-amino]-3,21,25,28,41-penta-[oxo]-1H-6,9:15,18-[dietheno]-4,30-[iminomethano]-31,35-[metheno]-11,27,13-[[1]-propene[1,2]diyl[3]ylidene]-13H-10,14,2,22,26,29-benzodioxatetraazacycloheptatriacontine-1-carboxylic acid 〈vancomycin〉 and 25 mg/litre of [1R-(1R^x,3S^x,5R^x,6R^x,9R^x,11R^x,15S^x,16R^x,17R^x,18S^x,19E,21E,23E,25E,27E,29E,31E,33R^x,35S^x,36R^x,37S^x)]-33-[{3-(amino)-3,6-di-(deoxy)-β-D-mannopyranosyl}-oxy]-1,3,5,6,9,11,17,37-octa-[hydroxy]-15,16,18-tri-[methyl]-13-[oxo]-14,39-di-[oxa]-bicyclo-[33.3.1]-nonatriaconta-19,21,23,25,27,29,31-heptaene-36-carboxylic acid 〈amphotericin B〉 was used (C. A. M. McNulty and I. C. Dent: Susceptibility of clinical isolates of Campylobacter pylori to twenty one antimicrobial agents. Book of Abstracts, 4th European Congress of Clinical Microbiology, Nice [1989]).
The plates containing the strains were cultivated at 37°C for 72 hours under a gaseous atmosphere containing 10% of carbon dioxide and 5% of oxygen (D. M. Jones et al., J. Clin. Pathol., 37 [1984], 1 002).
The culture media were inoculated with a dilution of the broth culture of the strains grown overnight or with a suspension prepared from a culture obtained on a solid medium. About 10^5 of germs were applied to the surface of each plate.
A series of dilution were prepared from the compound to be tested. The MIC (minimal inhibiting concentration) value of the compounds tested was considered to be the lowest concentration inhibiting the growth of the test organism completely. The results obtained for (R,S)-2-(E)-[4'-(chloro)-phenylmethylene]-1-(E)-[3''-(hexylamino)-2''-(hydroxy)-propoxy-imino]-cyclohexane and colloidal bismuth subcitrate used as reference are given in Table IVa.

## the basic aluminum salt of saccharose hydrogen sulfate [sucralfate, reference compound]
[1]
  activity in the test with absolute ethanol: nearly identical low activity

## OC(CNC1CCCCC1)CO/N=C1\CCCC\C1=C/c1ccc(Cl)cc1 (racemic) [(R,S)-2-(E)-[4'-(Chloro)-phenylmethylene]-1-(E)-[3''-(cyclohexylamino)-2''-(hydroxy)-propoxy-imino]-cyclohexane]
[1]
  Relative activity related to the inhibition of the free acid: 30.0
[2]
  Inhibition of the erosion index Relative activity: 2.1
  ED50: 30 to 60 mg/kg
  Inhibition of the erosion index ED50 p.o.: 10.3 mg/kg
[3]
  LD50 at 168 h: > 1000 mg/kg

## CN(CC(O)CO/N=C1\CCCC\C1=C/c1ccc(Cl)cc1)C1CCCCC1 (racemic) [(R,S)-2-(E)-[4'-(Chloro)-phenylmethylene]-1-(E)-[3''-{N-(methyl)-N-(cyclohexyl)-amino}-2''-(hydroxy)-propoxy-imino]-cyclohexane]
[3]
  LD50 at 168 h: > 1000 mg/kg

## CCCCCCNCC(O)CO/N=C1\CCCC\C1=C/c1ccccc1 (racemic) [(R,S)-2-(E)-[Phenylmethylene]-1-(E)-[3'-(hexylamino)-2'-(hydroxy)-propoxy-imino]-cyclohexane]
[1]
  Relative activity related to the inhibition of the free acid: about 250.0
[2]
  Inhibition of the erosion frequency Relative activity: 7.4
  Inhibition of the erosion index Relative activity: 1.9
  ED50: 25.7 mg/kg
  Inhibition of the erosion index ED50 p.o.: 11.5 mg/kg
[3]
  LD50 at 168 h: > 1000 mg/kg

## COc1ccc2[nH]c([S+]([O-])Cc3ncc(C)c(OC)c3C)nc2c1 (stereo not shown) [omeprazole, 5-[Methoxy]-2-[{4-(methoxy)-3,5-di-(methyl)-2-pyridyl}-methylsulfinyl]-benzimidazole, reference compound]
[3]
  LD50 at 7 days: > 4000 mg/kg

## NC[C@H]1CC[C@H](C(=O)Oc2ccc(CCC(=O)O)cc2)CC1 [cetraxate, 3-[4-{Trans-4-(aminomethyl)-cyclohexylcarbonyloxy}-phenyl]-propionic acid, reference compound]
Gastric acid secretion
  gastric acid secretion inhibition: only a moderate gastric acid secretion inhibition
[1]
  activity in the test with absolute ethanol: nearly identical low activity
[2]
  Inhibition of the erosion frequency Relative activity: 1.0
  Inhibition of the erosion index Relative activity: 1.0
  ED50: 189 mg/kg
  Inhibition of the erosion index ED50 p.o.: 22.0 mg/kg
[3]
  LD50 at 7 days: > 1000 mg/kg

## CN(C)CC(O)CO/N=C1\CCCC\C1=C/c1ccc(Cl)cc1 (racemic) [(R,S)-2-(E)-[4'-(Chloro)-phenylmethylene]-1-(E)-[3''-(dimethylamino)-2''-(hydroxy)-propoxy-imino]-cyclohexane]
[2]
  Inhibition of the erosion index Relative activity: 1.4
  ED50: 30 to 60 mg/kg
  Inhibition of the erosion index ED50 p.o.: 15.8 mg/kg
[3]
  LD50 at 168 h: > 1000 mg/kg

## CC(C)N(CC(O)CO/N=C1\CCCC\C1=C/c1ccc(Br)cc1)C(C)C (racemic) [(R,S)-2-(E)-[4'-(Bromo)-phenylmethylene]-1-(E)-[3''-(diisopropylamino)-2''-(hydroxy)-propoxy-imino]-cyclohexane]
[1]
  Relative activity related to the inhibition of the free acid: about 25.0
[2]
  Inhibition of the erosion frequency Relative activity: 9.9
  Inhibition of the erosion index Relative activity: 3.7
  ED50: 19.1 mg/kg
  Inhibition of the erosion index ED50 p.o.: 5.9 mg/kg
[3]
  LD50 at 168 h: 1000 mg/kg

## CCCCCCNCC(O)CO/N=C1\CCCC\C1=C/c1ccc(Cl)cc1 (racemic) [(R,S)-2-(E)-[4'-(Chloro)-phenylmethylene]-1-(E)-[3''-(hexylamino)-2''-(hydroxy)-propoxy-imino]-cyclohexane]
[1]
  Relative activity related to the inhibition of the free acid: 25.0
[2]
  Inhibition of the erosion frequency Relative activity: 7.5
  Inhibition of the erosion index Relative activity: 3.1
  ED50: 25.2 mg/kg
  Inhibition of the erosion index ED50 p.o.: 7.2 mg/kg
Helicobacter pylori; Helicobacter pylori strain 867/90
  MIC: 1.9 µg/mL (≈ 4.83 µM)
Helicobacter pylori; Helicobacter pylori strain 1596
  MIC: 0.9 µg/mL (≈ 2.29 µM)
Helicobacter pylori; Helicobacter pylori strain 3842
  MIC: 1.9 µg/mL (≈ 4.83 µM)
Helicobacter pylori; Helicobacter pylori strain 6656
  MIC: 1.9 µg/mL (≈ 4.83 µM)
Helicobacter pylori; Helicobacter pylori strain 6709
  MIC: 1.9 µg/mL (≈ 4.83 µM)
Helicobacter pylori; compared with colloidal bismuth subcitrate, result in words
  effectiveness against Helicobacter pylori: substantially more effective in the test than the colloidal bismuth subcitrate
[3]
  LD50 at 168 h: > 1000 mg/kg
